For the assay, the target named is T1, lck enzyme (Homo sapiens, UniProt P06239).
T1 construct: The lck enzyme comprises the entire lck molecule except the first nine amino acids which are replaced by an His-tag; His-tag (N); made in house
Description: Non-Radioactive Kinase Assay (lck). The assay is classed as biochemical. The settings on record: mean values of two independent experiments. On the procedure:
The lck enzyme comprises the entire lck molecule except the first nine amino acids which are replaced by an His-tag for purification purposes. The enzyme is affinity purified.
The reaction is started by the addition of 50 μl 500 μM ATP (in 10 mM MgAc2) and is performed at room temperature.
The solution is incubated for one hour at room temperature and the supernatant discarded. The well is washed twice with 300 μl PBS.

The structures appear in SMILES notation.

By IC50 is commonly meant the point on the concentration scale where inhibition reaches its midpoint.

T1 sequence (P06239 10-509 limits assumed, species assumed): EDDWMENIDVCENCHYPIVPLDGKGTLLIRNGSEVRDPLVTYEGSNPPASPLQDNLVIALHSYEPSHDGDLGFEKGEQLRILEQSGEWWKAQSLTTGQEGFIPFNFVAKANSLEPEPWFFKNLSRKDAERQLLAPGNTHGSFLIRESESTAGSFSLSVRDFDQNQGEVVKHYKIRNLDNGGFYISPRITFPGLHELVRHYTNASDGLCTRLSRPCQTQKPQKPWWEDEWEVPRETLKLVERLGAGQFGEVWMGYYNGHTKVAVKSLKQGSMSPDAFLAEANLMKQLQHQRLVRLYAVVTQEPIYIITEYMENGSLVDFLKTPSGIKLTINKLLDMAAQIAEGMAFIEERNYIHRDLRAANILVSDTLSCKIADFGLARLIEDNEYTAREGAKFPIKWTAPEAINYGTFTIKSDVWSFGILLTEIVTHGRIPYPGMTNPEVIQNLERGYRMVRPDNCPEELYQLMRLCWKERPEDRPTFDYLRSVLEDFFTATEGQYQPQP

Turning to `COC(=O)c1ccc2c(c1)NC(=O)/C2=C(\Nc1ccc(N(C)C(=O)CN(C)C)cc1)c1ccccc1` [(AI), (Z)-3-(1-(4-(N-(dimethylaminomethylcarbonyl)-N-methyl-amino)-phenylamino)-1-phenyl-methylene)-6-methoxycarbonyl-2-indolinone], the IC50 is 36 nM.

The values are drawn from patent US7989474B2, “Use of Lck inhibitors for treatment of immunologic diseases” (Boehringer Ingelheim Pharma GmbH & Co. KG, priority 2002, dated 2011).
